Data as given in article PMC12322260, “Anticancer activity of triterpene glycosides from the sea star Solaster pacificus” (Scientific Reports, 2025).
“And” between values parts separate entries of the source, which are not always exact repeats. Identical values can stand only once.

Key:
Format in all cases: cell-based, human
22Rv1 cells [1] = experiment: Drug combination MTT assay, SynergyFinder ZIP analysis; details: 22Rv1, 48 h
Experimental: (§1) Fig. 5 Effects of CuC1 in combination with taxanes and platinum agents. PC3-DR and 22Rv1 cells were co-treated with cisplatin (Cis), carboplatin (Carbo), docetaxel (Doce), or cabazitaxel (Caba) in combination with CuC1 at the indicated concentrations for 48 h. Cellular viability was evaluated using the MTT assay (number of biological replicates n = 3.) and is represented in the Supplementary Table S2. The cytotoxic effects were further analyzed, and 3D heat maps were constructed using SynergyFinder 3.0 software. The drug effects in combination (synergistic, additive, or antagonistic) were analyzed and visualized using the ZIP algorithm and are indicated by δ-score. δ > 10: Synergistic interactions (dark red area); […]: additive effect; δ < − 10: Antagonistic interactions (dark green area). A ZIP synergy score represents a mean δ overall the concentration range used.
(§2) The effect of combinational treatment with established chemotherapies was evaluated as previously reported^54. In brief, cells were exposed to individual drugs of their combinations for 48 h, and the viability was measured by MTT assay and was then analyzed using SynergyFinder 3.0 software (https://synergyfinder.fimm.fi) and the ZIP score algorithm. Statistical analysis was conducted automatically by the software using its inbuilt algorythms based on the input data type and size.

PC3-DR cells [2] = experiment: as above; details: 48 h
Experimental: as §1, §2

RWPE-1 cells = experiment: MTT cytotoxicity assay; details: RWPE-1, 48 h, mean ± SD
Excerpt: (§3) The cell lines were purchased from ATCC (Manassas, VA, USA) or ECACC (Salisbury, UK). The following cell lines were used: Human prostate cancer cells LNCaP (ATCC; RRID:CVCL_0395), VCaP (ECACC; RRID:CVCL_2235), 22Rv1 (ATCC; RRID:CVCL_1045), PC3 (ATCC; RRID:CVCL_0035), and DU145 (ATCC; RRID:CVCL_0105); human prostate non-cancer cells PNT2 (ATCC; RRID:CVCL_2164) and RWPE-01 (ATCC; RRID:CVCL_3791). Human non-cancer embryonic kidney cells HEK293T (ECACC; RRID:CVCL_0063) and human fibroblast cells MRC-9 (ECACC; RRID:CVCL_2629). The docetaxel-resistant cells PC3-DR were generated by long-term treatment of human prostate cancer PC3 cells with sublethal concentrations of docetaxel as previously described[32] and were provided by Prof. Z. Culig (Innsbruck Medical University, Austria). All cell lines were recently authenticated by a commercial service (Multiplexion GmbH, Heidelberg, Germany) and were cultured as previously described[58],[59]. Cells were kept in culture for a maximum of three months and were routinely examined for bacterial, fungal, and mycoplasma infections.

LNCaP cells = experiment: MTT cytotoxicity assay; details: 48 h, mean ± SD
Excerpt: as §3

DU145 cells = experiment: MTT cytotoxicity assay; details: DU145, 48 h, mean ± SD
Excerpt: as §3

HEK293T cells = experiment: MTT cytotoxicity assay; details: 48 h, mean ± SD
Excerpt: as §3

VCaP cells = experiment: MTT cytotoxicity assay; details: 48 h, mean ± SD
Excerpt: as §3

PC3 cells = experiment: MTT cytotoxicity assay; details: PC3, 48 h, mean ± SD
Excerpt: as §3

MRC-9 cells = experiment: MTT cytotoxicity assay; details: MRC-9, 48 h, mean ± SD
Excerpt: as §3

22Rv1 cells [3] = experiment: MTT cytotoxicity assay; details: 22Rv1, 48 h, mean ± SD
Excerpt: as §3

PNT2 cells = experiment: MTT cytotoxicity assay; details: PNT2, 48 h, mean ± SD
Excerpt: as §3

PC3-DR cells [4] = experiment: MTT cytotoxicity assay; details: 48 h, mean ± SD
Excerpt: as §3

[5] = tested on: non-cancer PNT2, RWPE-1, HEK293T, MRC-9 cells vs cancer PC3, 22Rv1, DU145, VCaP, LNCaP cells; experiment: Selectivity index from MTT IC50 values; details: [mean IC50 in non-cancer cells] / [mean IC50 in cancer cells]; Doce IC50 in PNT2 and MRC-9 assumed 500 nM

SMILES: N.N.[Cl][Pt][Cl] [Cis, cisplatin]
- Response (% of effect) (22Rv1 cells [1]; Cis 2.5 μM alone): 17.58% and 11.05%
- Response (% of effect) (22Rv1 cells [1]; Cis 5 μM alone): 26.89% and 27.91%
- Response (% of effect) (22Rv1 cells [1]; Cis 10 μM alone): 40.95% and 37.6%
- Response (% of effect) (PC3-DR cells [2]; Cis 1.25 μM alone): 12.8% and 15.79%
- Response (% of effect) (PC3-DR cells [2]; Cis 2.5 μM alone): 18.7% and 21.63%
- Response (% of effect) (PC3-DR cells [2]; Cis 5 μM alone): 29.8412% and 29.49%
- Response (% of effect) (PC3-DR cells [2]; Cis 10 μM alone): 50.19% and 51.55%
- IC50 (RWPE-1 cells): 9.02 ± 1.52 µM
- IC50 (LNCaP cells): 2750 ± 390 nM
- IC50 (DU145 cells): 1320 ± 310 nM
- IC50 (HEK293T cells): 6.44 ± 0.65 µM
- IC50 (VCaP cells): 5.02 ± 2.73 µM
- IC50 (PC3 cells): 34.6 ± 6.62 µM
- IC50 (MRC-9 cells): 6.75 ± 2.15 µM
- IC50 (22Rv1 cells [3]): 993 ± 200 nM
- IC50 (PNT2 cells): 9.41 ± 1.82 µM
- IC50 (PC3-DR cells [4]): 6.89 ± 2.29 µM
- Selectivity index (SI) [5]: 0.88

SMILES: N.N.O=C([O-])C1(C(=O)[O-])CCC1.[Pt+2] [Carbo, carboplatin]
- Response (% of effect) (22Rv1 cells [1]; Carbo 12.5 μM alone): 0.01% and 4.629%
- Response (% of effect) (22Rv1 cells [1]; Carbo 25 μM alone): 11.3613% and 13.96%
- Response (% of effect) (22Rv1 cells [1]; Carbo 50 μM alone): 22.27% and 31.0235%
- Response (% of effect) (22Rv1 cells [1]; Carbo 100 μM alone): 32.94% and 38.66%
- Response (% of effect) (PC3-DR cells [2]; Carbo 6.25 μM alone): 0.01% and 9.352%
- Response (% of effect) (PC3-DR cells [2]; Carbo 12.5 μM alone): 6.12% and 8.386%

SMILES: CO[C@H]1C(=O)[C@]2(C)[C@@H](OC)C[C@H]3OC[C@@]3(OC(C)=O)[C@H]2[C@H](OC(=O)c2ccccc2)[C@]2(O)C[C@H](OC(=O)[C@H](O)[C@@H](NC(=O)OC(C)(C)C)c3ccccc3)C(C)=C1C2(C)C [Caba, cabazitaxel]
- Response (% of effect) (22Rv1 cells [1]; Caba 0.25 nM alone): 3.714%
- Response (% of effect) (22Rv1 cells [1]; Caba 0.5 nM alone): 20.36% and 24.57%
- Response (% of effect) (22Rv1 cells [1]; Caba 1 nM alone): 27.6928% and 30.03%
- Response (% of effect) (22Rv1 cells [1]; Caba 2 nM alone): 32.86% and 33.2%
- Response (% of effect) (PC3-DR cells [2]; Caba 12.5 nM alone): 26.4286% and 23.41%
- Response (% of effect) (PC3-DR cells [2]; Caba 25 nM alone): 28.07% and 33.73%
- Response (% of effect) (PC3-DR cells [2]; Caba 50 nM alone): 43.53% and 46.12%
- Response (% of effect) (PC3-DR cells [2]; Caba 100 nM alone): 53.45% and 58.01%
